Data published in publication PMC10778626, “Efficacy of Novel Quaternary Ammonium and Phosphonium Salts Differing in Cation Type and Alkyl Chain Length against Antibiotic-Resistant Staphylococcus aureus” (International Journal of Molecular Sciences, 2023).
Like-named read-outs stand apart in the source and are kept apart here.

Columns and labels:
[1] = Chromatographic hydrophobicity index (CHI) by UHPLC; assay type: physicochemical; settings: for CHI: LC/UV at pH 2.6, calculated from retention time with the calibration line; for chromatographic logP: back-calculated from CHI at pH 2.6: CHI LogP = 0.047 × CHI + 0.36 × HBC − 1.10
Description: The chromatographic hydrophobicity index (CHI) values were determined using the retention times (tR) of the samples under study and of a mixture of standard compounds on a UHPLC NEXERA SERIES LC-40 with a Luna C18 (2) column of 150 × 4.6 mm, 5 μm (Phenomenex, Torrance, CA, USA). Stock solutions of the test compounds (10 mM) were prepared in dimethyl sulfoxide (DMSO, 99.9%; Carlo Erba) and diluted in acetonitrile/water (1:1) to obtain a final concentration of 500 μM. The mobile phase A was 1.0% (v/v) aqueous acetic acid solution (pH = 2.6), and the mobile phase B was acetonitrile. The following gradient programme was applied: 1–7 min 0–100% B, 7–17 min 100% B, 17–19 min 100–0% B, 1 mL/min flow; rt, injection volume 40 μL.
A calibration line was obtained using a mixture of the following compounds: benzimidazole, theophylline, paracetamol, caffeine, colchicine, carbamazepine, indole, propiophenone, butyrophenone, valerophenone, and heptanophenone (Table S1 and Figure S50, Supplementary Materials). The experimental CHI values of the compounds tested at pH 2.6 were then converted to the logarithm of octanol/water partition coefficient (CHI LogP) values using Equation (1). CHI LogP = 0.047 × CHI + 0.36 × HBC − 1.10 (1) where HBC is the hydrogen bond donor count.

[2] = system: S. aureus CECT 976; assay: MIC/MBC by broth microdilution, S. aureus CECT 976; assay type: cell-based; settings: Staphylococcus aureus
Description: The minimum inhibitory concentration (MIC) and minimum bactericidal concentration (MBC) values of all QHSs were determined by the broth microdilution method, according to the approved M7-A7 (aerobes) standards of the Clinical and Laboratory Standards Institute (CLSI) guidelines. Overnight cell cultures of S. aureus, in the exponential phase of growth, were adjusted to an optical density (OD) of 0.132 ± 0.02 (λ = 600 nm). Then, a volume of 180 µL of the cell suspension was added to sterile, flat, clear-bottomed polystyrene (PS) 96-well microtiter plates (VWR—Radnor, PA, USA), already containing 20 µL of each QHS under study at concentrations ranging from 0.0625 to 64 µg/mL. In the end, the volume of each compound never exceeded 10% (v/v) of the well volume. Microtiter plates were then incubated for 24 h at 37 °C under agitation (150 rpm; INCU-Line IL 150R incubator). Absorbance measurements were performed at the beginning (t = 0 h) and end (t = 24 h) of the incubation period using a microtiter plate absorbance reader (BMG LABTECH FLUOstar Omega). Bacterial suspensions with DMSO and without QHSs were used as negative controls. […] All tests were performed with six replicates and a minimum of three independent repeats.
Plates were incubated at 37 °C for 24 h, and growth was visually inspected. […] All tests were performed in triplicate, and with a minimum of three independent repeats.

[3] = CECT976, S. aureus CECT 976, broth microdilution, 24 h, 37 °C, read-out: MIC
[4] = CECT976, S. aureus CECT 976, broth microdilution, plated on PCA, read-out: MBC

SMILES	CHI [1]	chromatographic logP [1]	MIC [2, 3]	MBC [2, 4]	MBC ([2]; CECT976)	MIC ([2]; CECT976, 24 h)
CCCCCCCC[n+]1ccccc1.[Br-] [Compound 6b, 1-Octylpyridin-1-ium bromide]	40.78	0.817	> 64 µg/mL	> 64 µg/mL		
CCCCCCCCCCCCCCCC[n+]1ccccc1.[Br-] [Compound 6f, 1-Hexadecylpyridin-1-ium bromide]	94.47	3.34			8 µg/mL	
CCCCCCCCCCCCCCCC[P+](c1ccccc1)(c1ccccc1)c1ccccc1 [Compound 1f, Hexadecyltriphenylphosphonium bromide]	115.5	4.33	2 µg/mL	16 µg/mL		
CCCCCC[n+]1ccn(C)c1.[Br-] [Compound 2a, 3-Hexyl-1-methyl-1H-imidazol-3-ium bromide]	29.35	0.279			> 64 µg/mL	> 64 µg/mL
CCCCCCCCCCCCCCCC[n+]1ccc(C)cc1.[Br-] [Compound 4f, 1-Hexadecyl-4-methylpyridin-1-ium bromide]	96.77	3.45	4 µg/mL	8 µg/mL		
CCCCCCCC[n+]1ccn(C)c1.[Br-] [Compound 2b, 1-Methyl-3-octyl-1H-imidazol-3-ium bromide]	42.19	0.883	> 64 µg/mL	> 64 µg/mL		
CCCCCCCCCCCC[N+](CC)(CC)CC.[Br-] [Compound 7d, N,N,N-Triethyldodecan-1-aminium bromide]			4 µg/mL	16 µg/mL		
CCCCCC[N+](CC)(CC)CC.[Br-] [Compound 7a, N,N,N-Triethylhexan-1-aminium bromide]			> 64 µg/mL	> 64 µg/mL		
CCCCCCCC[n+]1ccc(C)cc1.[Br-] [Compound 4b, 4-Methyl-1-octylpyridin-1-ium bromide]	43.90	0.963	> 64 µg/mL	> 64 µg/mL		
CCCCCCCCCC[P+](c1ccccc1)(c1ccccc1)c1ccccc1 [Compound 1c, Decyltriphenylphosphonium bromide]	82.58	2.78	1 µg/mL	8 µg/mL		
CCCCCCCCCC[n+]1ccccc1.[Br-] [Compound 6c, 1-Decylpyridin-1-ium bromide]	53.07	1.4	32 µg/mL	> 64 µg/mL		
CCCCCC[n+]1ccc(C)cc1.[Br-] [Compound 4a, 1-Hexyl-4-methylpyridin-1-ium bromide]	31.08	0.361	> 64 µg/mL	> 64 µg/mL		
CCCCCCCCCCCCCCCCCC[n+]1cccc2ccccc21.[Br-] [Compound 5g, 1-Octadecylquinolin-1-ium bromide]	112.9	4.21	16 µg/mL	16 µg/mL		
CCCCCCCCCCCC[n+]1cccc2ccccc21.[Br-] [Compound 5d, 1-Dodecylquinolin-1-ium bromide]	74.21	2.39	4 µg/mL	16 µg/mL		
CCCCCCCCCCCCCCCCCC[n+]1ccc(C)cc1.[Br-] [Compound 4g, 4-Methyl-1-octadecylpyridin-1-ium bromide]	109.2	4.03	8 µg/mL	16 µg/mL		
CCCCCCCCCC[N+](CC)(CC)CC.[Br-] [Compound 7c, N,N,N-Triethyldecan-1-aminium bromide]			64 µg/mL	> 64 µg/mL		
CCCCCCCC[n+]1ccc2ccccc2c1.[Br-] [Compound 3b, 2-Octylisoquinolin-2-ium bromide]	50.02	1.25			> 64 µg/mL	64 µg/mL
CCCCCCCCCCCCCCCC[n+]1ccn(C)c1.[Br-] [Compound 2f, 3-Hexadecyl-1-methyl-1H-imidazol-3-ium bromide]	95.91	3.41	4 µg/mL	8 µg/mL		

SMILES	CHI [1]	chromatographic logP [1]	MIC [2, 3]	MBC [2, 4]	MBC ([2]; CECT976)	MIC ([2]; CECT976, 24 h)
CCCCCCCCCCCCCCCCCC[n+]1ccc2ccccc2c1 [Compound 3g]	113.1	4.21	8 µg/mL	16 µg/mL		
CCCCCCCCCCCC[P+](c1ccccc1)(c1ccccc1)c1ccccc1 [Compound 1d, Dodecyltriphenylphosphonium bromide]	94.50	3.34			16 µg/mL	1 µg/mL
CCCCCC[P+](c1ccccc1)(c1ccccc1)c1ccccc1 [Compound 1a, Hexyltriphenylphosphonium bromide]	60.58	1.75	8 µg/mL	> 64 µg/mL		
CCCCCCCCCCCCCCCC[N+](CC)(CC)CC.[Br-] [Compound 7f, N,N,N-Triethylhexadecan-1-aminium bromide]			64 µg/mL	64 µg/mL		
CCCCCCCCCCCCCCCC[n+]1ccc2ccccc2c1.[Br-] [Compound 3f, 2-Hexadecylisoquinolin-2-ium bromide]	100.8	3.64	4 µg/mL	8 µg/mL		
CCCCCCCCCCCCCCCCCC[P+](c1ccccc1)(c1ccccc1)c1ccccc1 [Compound 1g, Octadecyltriphenylphosphonium bromide]	128.2	4.93	4 µg/mL	64 µg/mL		
CCCCCCCCCC[n+]1ccn(C)c1.[Br-] [Compound 2c, 3-Decyl-1-methyl-1H-imidazol-3-ium bromide]	54.51	1.46	16 µg/mL	> 64 µg/mL		
CCCCCCCCCC[n+]1ccc2ccccc2c1.[Br-] [Compound 3c, 2-Decylisoquinolin-2-ium bromide]	61.62	1.8	16 µg/mL	64 µg/mL		
CCCCCCCCCCCC[n+]1ccn(C)c1.[Br-] [Compound 2d, 3-Dodecyl-1-methyl-1H-imidazol-3-ium bromide]	67.25		1 µg/mL	16 µg/mL		
CCCCCCCCCC[n+]1cccc2ccccc21.[Br-] [Compound 5c, 1-Decylquinolin-1-ium bromide]	61.45	1.79	16 µg/mL	32 µg/mL		
CCCCCCCCCCCC[n+]1ccc(C)cc1.[Br-] [Compound 4d, 1-Dodecyl-4-methylpyridin-1-ium bromide]	68.96	2.14	2 µg/mL	16 µg/mL		
CCCCCCCCCCCCCCCCCC[n+]1ccccc1.[Br-] [Compound 6g, 1-Octadecylpyridin-1-ium bromide]	108.1	3.98	8 µg/mL	16 µg/mL		
CCCCCCCC[N+](CC)(CC)CC.[Br-] [Compound 7b, N,N,N-Triethyloctan-1-aminium bromide]			> 64 µg/mL	> 64 µg/mL		
CCCCCCCCCCCC[n+]1ccc2ccccc2c1.[Br-] [Compound 3d, 2-Dodecylisoquinolin-2-ium bromide]	74.48	2.4	2 µg/mL	16 µg/mL		
CCCCCCCCCCCCCCCCCC[n+]1ccn(C)c1.[Br-] [Compound 2g, 1-Methyl-3-octadecyl-1H-imidazol-3-ium bromide]	109.2	4.03	8 µg/mL	16 µg/mL		
CCCCCC[n+]1ccc2ccccc2c1.[Br-] [Compound 3a, 2-Hexylisoquinolin-2-ium bromide]	37.81	0.677	> 64 µg/mL	> 64 µg/mL		
CCCCCCCCCCCCCCCCCC[N+](CC)(CC)CC.[Br-] [Compound 7g, N,N,N-Triethyloctadecan-1-aminium bromide]			16 µg/mL	16 µg/mL		
